Test [1] concerns Spontaneously hypertensive rats (SHR). As to the kind of experiment: Acute Efficacy in Spontaneously Hypertensive Rats (SHR), telemetry blood pressure. It is filed as in vivo, rat. Particulars: SHR male. The text has this: Acute Efficacy in Spontaneously Hypertensive Rats (SHR)
Spontaneously hypertensive rats (SHR, male, Charles River) were implanted with DSI TA11PA-C40 telemetry device (Data Sciences, Inc., St. Paul, Minn.) under isoflurane or ketamine/metomidine anesthesia. The telemetry unit catheter was inserted into the descending aorta via the femoral artery and the telemetry device was implanted subcutaneously in the left flank area. Animals were allowed to recover from surgery for 14 days before the start of any studies. Blood pressure, heart rate, and activity signals from conscious, freely moving rats were recorded continuously for 30 seconds every 10 minutes. On the day prior to administration of compound, a single oral dose of vehicle (10% transcutol/20% Cremophor/70% water) was administered to all animals to establish baseline control data. The blood pressure lowering efficacy of compound (PO) or vehicle was evaluated following a single oral gavage. Data were collected as hourly averages, and changes in blood pressure were calculated by subtracting control baseline data on an hourly basis. Animals were maintained on normal diet with a 12 hour light-dark cycle.
Maximum peak decreases of systolic blood pressure (SBP) in SHR at a particular P.O. dose (mpk milligrams per kilogram) for the following representative compounds are provided. • Category A=SBP in SHRs<20 mmHg; Category B=SBP in SHRs 20-40 mmHg; • Category C=SBP in SHRs>40 mmHg

Test [2] has as its target T1, sGC α1/β1 heterodimer (Homo sapiens, UniProt Q02108+Q02153).
T1 construct: expressed in transfected cells; host or cells: CHO-K1 (clone #7, CHO-K1/sGC)
T1 sequence (Q02108 1-690): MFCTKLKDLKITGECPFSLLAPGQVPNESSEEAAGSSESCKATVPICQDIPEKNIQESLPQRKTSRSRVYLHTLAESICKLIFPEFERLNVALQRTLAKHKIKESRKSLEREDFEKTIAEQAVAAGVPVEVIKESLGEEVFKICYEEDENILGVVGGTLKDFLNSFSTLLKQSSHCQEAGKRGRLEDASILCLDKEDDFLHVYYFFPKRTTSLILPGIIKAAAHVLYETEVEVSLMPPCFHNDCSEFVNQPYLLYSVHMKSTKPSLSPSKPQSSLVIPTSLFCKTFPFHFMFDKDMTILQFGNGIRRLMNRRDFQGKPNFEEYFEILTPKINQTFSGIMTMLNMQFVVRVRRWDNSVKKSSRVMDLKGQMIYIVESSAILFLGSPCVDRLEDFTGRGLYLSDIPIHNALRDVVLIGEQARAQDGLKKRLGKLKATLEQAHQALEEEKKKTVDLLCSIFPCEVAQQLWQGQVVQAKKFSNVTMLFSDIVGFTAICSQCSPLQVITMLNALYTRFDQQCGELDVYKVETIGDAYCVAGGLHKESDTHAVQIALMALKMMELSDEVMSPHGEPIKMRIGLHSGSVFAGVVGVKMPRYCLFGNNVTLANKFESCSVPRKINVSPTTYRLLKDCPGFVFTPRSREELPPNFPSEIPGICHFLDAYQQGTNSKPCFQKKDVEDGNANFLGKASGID
T1 sequence (Q02153 1-619): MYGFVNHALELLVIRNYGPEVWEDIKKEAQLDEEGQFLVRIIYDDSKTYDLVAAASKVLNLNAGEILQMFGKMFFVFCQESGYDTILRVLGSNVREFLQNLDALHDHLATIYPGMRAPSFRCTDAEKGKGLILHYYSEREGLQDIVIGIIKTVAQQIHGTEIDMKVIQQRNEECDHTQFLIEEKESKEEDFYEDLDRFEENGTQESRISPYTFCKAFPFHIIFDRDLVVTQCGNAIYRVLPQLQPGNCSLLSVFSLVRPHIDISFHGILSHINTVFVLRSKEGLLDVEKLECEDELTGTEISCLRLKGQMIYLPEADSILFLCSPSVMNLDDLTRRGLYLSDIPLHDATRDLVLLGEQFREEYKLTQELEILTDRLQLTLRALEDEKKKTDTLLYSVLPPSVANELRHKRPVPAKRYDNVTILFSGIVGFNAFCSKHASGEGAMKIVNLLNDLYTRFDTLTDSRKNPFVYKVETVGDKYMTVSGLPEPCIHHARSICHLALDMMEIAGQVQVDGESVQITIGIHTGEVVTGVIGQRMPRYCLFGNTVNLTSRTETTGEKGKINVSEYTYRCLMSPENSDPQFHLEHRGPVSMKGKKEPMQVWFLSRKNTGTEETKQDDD
As to the kind of experiment: Cell-Based sGC Functional Assay (CASA Assay), cGMP by HTRF in CHO-K1/sGC cells. The conditions noted are these: for Emax: CHO-K1, percent activation relative to maximum cGMP production of Compound A (= 100%), read-out: % Act.; for EC50: cGMP production, 1 hr at 37° C., 4P fit, presence or absence of 1 μM DETA-NO not given, read-out: IP (nM) (inflection point). The essentials:
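CHO-K1 cells stably expressing human sGC α1/β1, in EBSS buffer with 5 mM MgCl2, 10 mM HEPES, 0.05% BSA and 0.5 mM IBMX, incubated with compound (2.5% DMSO) ± 1 μM DETA-NO, 1 h, 37 °C. Intracellular cGMP read by HTRF; activity as % of reference activator maximum, IP from 4-parameter fit.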
In general terms: In TR-FRET formats the signal depends on donor and acceptor labels being close together.

On to `CC1(c2ccc(Cl)cn2)C(=O)Nc2nc(-c3cn4ccnc4c(CCCC(F)(F)F)n3)nc(O)c21` (stereo not drawn) [Example 28A, 5-(5-chloropyridin-2-yl)-4-hydroxy-5-methyl-2-(8-(4,4,4-trifluorobutyl)imidazo[1,2-a]pyrazin-6-yl)-5H-pyrrolo[2,3-d]pyrimidin-6(7H)-one], for which the “Cat. (maximum peak decrease of systolic blood pressure (SBP) in SHR)” value in test [1] (single oral dose 1.0 mpk P.O.) was “A (Category A=SBP in SHRs<20 mmHg)”. For the same compound, in test [2], the Emax amounted to 95% and the EC50 came to 245 nM.

Consider `CC1(c2ccc(F)cn2)C(=O)Nc2nc(-c3cn4ccnc4c(CCC(F)(F)C(F)(F)F)n3)ncc21` (stereo not drawn) [Example 62B, 5-(5-fluoropyridin-2-yl)-5-methyl-2-(8-(3,3,4,4,4-pentafluorobutyl)imidazo[1,2-a]pyrazin-6-yl)-5H-pyrrolo[2,3-d]pyrimidin-6(7H)-one], for which the “Cat. (maximum peak decrease of systolic blood pressure (SBP) in SHR)” value in test [1] (single oral dose 1.0 mpk P.O.) was “B (Category B=SBP in SHRs 20-40 mmHg)”. Further, in test [2], the Emax amounted to 98% and the EC50 came to 104 nM.

As for `CC1(c2ccc(F)cc2)C(=O)Nc2nc(-c3cn4ccnc4c(Cc4ccc(F)cc4)n3)nc(O)c21` (stereo not drawn) [Example 81A, 2-(8-(4-fluorobenzyl)imidazo[1,2-a]pyrazin-6-yl)-5-(4-fluorophenyl)-4-hydroxy-5-methyl-5H-pyrrolo[2,3-d]pyrimidin-6(7H)-one], in test [1] (single oral dose 1.0 mpk P.O.), the “Cat. (maximum peak decrease of systolic blood pressure (SBP) in SHR)” value is “B (Category B=SBP in SHRs 20-40 mmHg)”. Moreover, in test [2], the Emax came to 104% and the EC50 came out at 144 nM.

On to `CC1(c2ccc(F)cn2)C(=O)Nc2nc(-c3cn4ccnc4c(Cc4ccc(F)cc4)n3)ncc21` (stereo not drawn) [Example 5B, 2-(8-(4-fluorobenzyl)imidazo[1,2-a]pyrazin-6-yl)-5-(5-fluoropyridin-2-yl)-5-methyl-5H-pyrrolo[2,3-d]pyrimidin-6(7H)-one], for which the “Cat. (maximum peak decrease of systolic blood pressure (SBP) in SHR)” value in test [1] (single oral dose 0.3 mpk P.O.) is listed as “B (Category B=SBP in SHRs 20-40 mmHg)”. In test [2], the Emax was determined as 117% and the EC50 came to 30 nM.

In the case of `CC1(c2ccc(Cl)cn2)C(=O)Nc2nc(-c3cn4ccnc4c(CCCC(F)(F)F)n3)ncc21` (stereo not drawn) [Example 59A, 5-(5-chloropyridin-2-yl)-5-methyl-2-(8-(4,4,4-trifluorobutyl)imidazo[1,2-a]pyrazin-6-yl)-5H-pyrrolo[2,3-d]pyrimidin-6(7H)-one], the “Cat. (maximum peak decrease of systolic blood pressure (SBP) in SHR)” value in test [1] (single oral dose 1.0 mpk P.O.) is listed as “B (Category B=SBP in SHRs 20-40 mmHg)”. In addition, in test [2], the Emax is 91% and the EC50 was found to be 68 nM.

Consider `CC1(c2ccc(Cl)cn2)C(=O)Nc2nc(-c3cn4ccnc4c(CCC(F)(F)C(F)(F)F)n3)ncc21` (stereo not drawn) [Example 36A, 5-(5-Chloropyridin-2-yl)-5-methyl-2-(8-(3,3,4,4,4-pentafluorobutyl)imidazo[1,2-a]pyrazin-6-yl)-5H-pyrrolo[2,3-d]pyrimidin-6(7H)-one], for which the “Cat. (maximum peak decrease of systolic blood pressure (SBP) in SHR)” value in test [1] (single oral dose 0.3 mpk P.O.) is given as “A (Category A=SBP in SHRs<20 mmHg)”. Besides, in test [2], the Emax is 104% and the EC50 worked out at 54 nM.

For the compound `CC1(c2ccc(F)cn2)C(=O)Nc2nc(-c3cn4ccnc4c(CCCC(F)(F)F)n3)ncc21` (stereo not drawn) [Example 66B, 5-(5-fluoropyridin-2-yl)-5-methyl-2-(8-(4,4,4-trifluorobutyl)imidazo[1,2-a]pyrazin-6-yl)-5H-pyrrolo[2,3-d]pyrimidin-6(7H)-one], the “Cat. (maximum peak decrease of systolic blood pressure (SBP) in SHR)” value in test [1] (single oral dose 1.0 mpk P.O.) was “A (Category A=SBP in SHRs<20 mmHg)”. For the same compound, in test [2], the Emax came out at 125% and the EC50 was determined as 217 nM.

Consider `O=C1Nc2nc(-c3cn4ccnc4c(CCCC(F)(F)F)n3)ncc2C1(c1ccc(F)c(F)c1)C1CC1` (stereo not drawn) [Example 44A, 5-cyclopropyl-5-(3,4-difluorophenyl)-2-(8-(4,4,4-trifluorobutyl)imidazo[1,2-a]pyrazin-6-yl)-5H-pyrrolo[2,3-d]pyrimidin-6(7H)-one], for which the “Cat. (maximum peak decrease of systolic blood pressure (SBP) in SHR)” value in test [1] (single oral dose 1.0 mpk P.O.) was “B (Category B=SBP in SHRs 20-40 mmHg)”. In test [2], the Emax came to 150% and the EC50 was 114 nM.

`O=C1Nc2nc(-c3cn4ccnc4c(CCCC(F)(F)F)n3)ncc2C1(c1ccc(OC(F)(F)F)cc1)C1CC1` (stereo not drawn) [Example 52A, 5-cyclopropyl-2-(8-(4,4,4-trifluorobutyl)imidazo[1,2-a]pyrazin-6-yl)-5-(4-(trifluoromethoxy)phenyl)-5H-pyrrolo[2,3-d]pyrimidin-6(7H)-one]: the “Cat. (maximum peak decrease of systolic blood pressure (SBP) in SHR)” value in test [1] (single oral dose 3.0 mpk P.O.) was “A (Category A=SBP in SHRs<20 mmHg)”. Further, in test [2], the Emax was found to be 155% and the EC50 stood at 791 nM.

In the case of `CC1(C(=O)NC2CC2)C(=O)Nc2nc(-c3cn4ccnc4c(Cc4ccc(F)cc4)n3)ncc21` (single isomer, unassigned) [Example 67A, N-Cyclopropyl-2-(8-(4-fluorobenzyl)imidazo[1,2-a]pyrazin-6-yl)-5-methyl-6-oxo-6,7-dihydro-5H-pyrrolo[2,3-d]pyrimidine-5-carboxamide], the “Cat. (maximum peak decrease of systolic blood pressure (SBP) in SHR)” value in test [1] (single oral dose 1.0 mpk P.O.) is “B (Category B=SBP in SHRs 20-40 mmHg)”. Further, in test [2], the Emax worked out at 167% and the EC50 came out at 106 nM.

`O=C1Nc2nc(-c3cn4ccnc4c(CCCC(F)(F)F)n3)ncc2C1(c1ccc(Cl)cn1)C1CC1` (stereo not drawn) [Example 9A, 5-(5-chloropyridin-2-yl)-5-cyclopropyl-2-(8-(4,4,4-trifluorobutyl)imidazo[1,2-a]pyrazin-6-yl)-5H-pyrrolo[2,3-d]pyrimidin-6(7H)-one]: the “Cat. (maximum peak decrease of systolic blood pressure (SBP) in SHR)” value in test [1] (single oral dose 2.0 mpk P.O.) is on record as “B (Category B=SBP in SHRs 20-40 mmHg)”. Also, in test [2], the Emax is 120% and the EC50 amounted to 74 nM.

For the compound `CCCCc1nc(-c2ncc3c(n2)NC(=O)C3(c2ccc(Cl)cn2)C2CC2)cn2ccnc12` (stereo not drawn) [Example 55A, 2-(8-butylimidazo[1,2-a]pyrazin-6-yl)-5-(5-chloropyridin-2-yl)-5-cyclopropyl-5H-pyrrolo[2,3-d]pyrimidin-6(7H)-one], in test [1] (single oral dose 2.0 mpk P.O.), the “Cat. (maximum peak decrease of systolic blood pressure (SBP) in SHR)” value was “B (Category B=SBP in SHRs 20-40 mmHg)”. Besides, in test [2], the Emax was 188% and the EC50 was found to be 73 nM.

Take `CC1(c2ccc(F)c(F)c2)C(=O)Nc2nc(-c3cn4ccnc4c(CCC(F)(F)F)n3)ncc21` (stereo not drawn) [Example 37B, 5-(3,4-difluorophenyl)-5-methyl-2-(8-(3,3,3-trifluoropropyl)imidazo[1,2-a]pyrazin-6-yl)-5H-pyrrolo[2,3-d]pyrimidin-6(7H)-one]: the “Cat. (maximum peak decrease of systolic blood pressure (SBP) in SHR)” value in test [1] (single oral dose 3.0 mpk P.O.) was “B (Category B=SBP in SHRs 20-40 mmHg)”. In addition, in test [2], the Emax amounted to 125% and the EC50 is 800 nM.

Source of the values: US10213429B2, “Imidazo-pyrazinyl derivatives useful as soluble guanylate cyclase activators” (Merck Sharp & Dohme Corp., priority 2015, dated 2019).
